Test results from patent EP4725957A1, “GROUP OF CYCLIC ALKALINE LIPOPEPTIDE COMPOUNDS, AND PREPARATION METHOD THEREFOR AND USE THEREOF” (Institute of Medicinal Biotechnology, Chinese Academy of …, priority 2023, dated 2024).
Values after ≈ are worked out from the molar mass of the structure shown. Bridge positions count the residues as written; N and C are the ends. Square brackets hold non-standard residues; d marks the D form. Peptide text beside a SMILES is read from it. * marks the point of attachment. Dab(CH2SO3H) = N[C@@H](CCNCS(=O)(=O)O)C(=O)O; Heptanoyl(6-Me) = CC(C)CCCCC(=O)*; Nonanoyl = CCCCCCCCC(=O)*; X1 = CC[C@H](C)CCCCC(=O)*; Octanoyl = CCCCCCCC(=O)*; Orn = NCCC[C@H](N)C(=O)O; dDap = NC[C@@H](N)C(=O)O; Dab = NCC[C@H](N)C(=O)O; Dap = NC[C@H](N)C(=O)O

Tests used:
Assay type in all cases: cell-based
[1] = Nephrotoxicity assay: in vitro cytotoxicity of HK-2 cells by CCK-8 assay; details: human, HK-2 cells (human renal), 72 h incubation with drug-containing medium
Method in brief: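 HK-2 human renal cells in RPMI-1640 with 10% FBS were exposed to compounds at final 12.5–500 µg/mL for 72 h, then CCK-8 for 3 h and OD450 read. Viability was normalised to drug-free wells; IC50 came from logarithmic regression over three repeats, with polymyxin B as positive drug.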

[2] = system: Acinetobacter baumannii ABA19-1; details: ABA19-1
Method in brief: (§1)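 Broth microdilution MIC per CLSI in MH broth, compounds 2-fold diluted to final 64–0.03 mg/L. Inoculum (2-4) × 10^5 CFU/mL final, from 0.5 McFarland suspensions of 18-24 h colonies. Plates sealed and incubated 35-37°C for 16-20 h.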

[3] = system: Acinetobacter baumannii NCTC 13304 (OXA-27); details: NCTC 13304
Method in brief: as §1

[4] = system: Pseudomonas aeruginosa PAE19-3; details: PAE19-3
Method in brief: as §1

[5] = system: Escherichia coli ATCC BAA-2340 (KPC); details: ATCC BAA-2340
Method in brief: as §1

[6] = system: Klebsiella pneumoniae ATCC BAA-1705 (KPC); details: ATCC BAA-1705
Method in brief: as §1

[7] = system: Pseudomonas aeruginosa ATCC 27853; details: ATCC 27853
Method in brief: as §1

[8] = system: Klebsiella pneumoniae KPN+19-15; details: KPN+19-15
Method in brief: as §1

[9] = system: Escherichia coli ATCC BAA-2523; details: ATCC BAA-2523
Method in brief: as §1

SMILES	IC50 at 72 h [1] [µg/mL]	MIC [2] [µg/mL]	MIC [3] [µg/mL]	MIC [4] [µg/mL]	MIC [5] [µg/mL]	MIC [6] [µg/mL]	MIC [7] [µg/mL]	MIC [8] [µg/mL]	MIC [9] [µg/mL]
CC(C)CCCCC(=O)N[C@@H](CCN)C(=O)N[C@H](C(=O)N[C@H](CO)C(=O)N[C@H]1CCNC(=O)[C@H]([C@@H](C)O)NC(=O)[C@H](CCN)NC(=O)[C@H](CN)NC(=O)[C@H]([C@@H](C)O)NC(=O)[C@@H](Cc2ccccc2)NC(=O)[C@H](CCN)NC1=O)[C@@H](C)O [Compound 72, 6-methylheptanoyl-Dab-Thr-D-Ser-ring(4-10)[Dab-Dab-D-Phe-Thr-Dap-Dab-Thr]] ({Heptanoyl(6-Me)}-[Dab]T[dS][Dab][Dab][dF]T[Dap][Dab]T; lactam 4-C)	> 500	0.06 (≈ 0.0522 µM)	≤0.03	64 (≈ 55.6 µM)	≤0.03	0.25 (≈ 0.217 µM)	>64	0.5 (≈ 0.435 µM)	≤0.03
CC(C)CCCCC(=O)N[C@@H](CCNCS(=O)(=O)O)C(=O)N[C@H](C(=O)N[C@@H](CN)C(=O)N[C@H]1CCNC(=O)[C@H]([C@@H](C)O)NC(=O)[C@H](CCN)NC(=O)[C@H](CCN)NC(=O)[C@H]([C@@H](C)O)NC(=O)[C@@H](Cc2ccccc2)NC(=O)[C@H](CCN)NC1=O)[C@@H](C)O [Compound 117, 6-methylheptanoyl-Dab(CH2SO3H)-Thr-Dap-ring(4-10)[Dab-Dab-D-Phe-Thr-Dab-Dab-Thr]] ({Heptanoyl(6-Me)}-[Dab(CH2SO3H)]T[Dap][Dab][Dab][dF]T[Dab][Dab]T; lactam 4-C)	> 500	0.25 (≈ 0.199 µM)	0.06 (≈ 0.0477 µM)	0.5 (≈ 0.398 µM)	0.06 (≈ 0.0477 µM)	0.125 (≈ 0.0994 µM)	0.25 (≈ 0.199 µM)	0.125 (≈ 0.0994 µM)	0.06 (≈ 0.0477 µM)
CC[C@H](C)CCCCC(=O)N[C@@H](CCN)C(=O)N[C@H](C(=O)N[C@H](CO)C(=O)N[C@H]1CCNC(=O)[C@H]([C@@H](C)O)NC(=O)[C@H](CCN)NC(=O)[C@H](CCN)NC(=O)[C@H]([C@@H](C)O)NC(=O)[C@@H](Cc2ccccc2)NC(=O)[C@H](CCCN)NC1=O)[C@@H](C)O [Compound 66, (S)-6-methyloctanoyl-Dab-Thr-D-Ser-ring(4-10)[Dab-Orn-D-Phe-Thr-Dab-Dab-Thr]] (X1-[Dab]T[dS][Dab][Orn][dF]T[Dab][Dab]T; lactam 4-C)	> 500	0.25 (≈ 0.21 µM)	0.25 (≈ 0.21 µM)	4 (≈ 3.35 µM)	0.125 (≈ 0.105 µM)	0.25 (≈ 0.21 µM)	64 (≈ 53.7 µM)	0.5 (≈ 0.419 µM)	0.125 (≈ 0.105 µM)
CCCCCCCCC(=O)N[C@@H](CCCN)C(=O)N[C@H](C(=O)N[C@H](CO)C(=O)N[C@H]1CCNC(=O)[C@H]([C@@H](C)O)NC(=O)[C@H](CCN)NC(=O)[C@H](CCN)NC(=O)[C@H]([C@@H](C)O)NC(=O)[C@@H](Cc2ccccc2)NC(=O)[C@H](CCN)NC1=O)[C@@H](C)O [Compound 60, Nonanoyl-Orn-Thr-D-Ser-ring(4-10)[Dab-Dab-D-Phe-Thr-Dab-Dab-Thr]] (Nonanoyl-[Orn]T[dS][Dab][Dab][dF]T[Dab][Dab]T; lactam 4-C)	281 ± 9.5 (≈ 235 µM)	0.25 (≈ 0.21 µM)	0.25 (≈ 0.21 µM)	8 (≈ 6.71 µM)	0.25 (≈ 0.21 µM)	0.25 (≈ 0.21 µM)	64 (≈ 53.7 µM)	0.5 (≈ 0.419 µM)	0.25 (≈ 0.21 µM)
CCCCCCCC(=O)N[C@@H](CCN)C(=O)N[C@H](C(=O)N[C@@H](CN)C(=O)N[C@H]1CCNC(=O)[C@H]([C@@H](C)O)NC(=O)[C@H](CCN)NC(=O)[C@H](CCN)NC(=O)[C@H]([C@@H](C)O)NC(=O)[C@@H](Cc2ccccc2)NC(=O)[C@H](CCN)NC1=O)[C@@H](C)O [Compound 8, Octanoyl-Dab-Thr-Dap-ring(4-10)[Dab-Dab-D-Phe-Thr-Dab-Dab-Thr]] (Octanoyl-[Dab]T[Dap][Dab][Dab][dF]T[Dab][Dab]T; lactam 4-C)	> 500	≤0.03	≤0.03	0.25 (≈ 0.215 µM)	≤0.03	≤0.03	0.125 (≈ 0.107 µM)	≤0.03	≤0.03
CCCCCCCCC(=O)N[C@@H](CCN)C(=O)N[C@H](C(=O)N[C@H](CO)C(=O)N[C@H]1CCNC(=O)[C@H]([C@@H](C)O)NC(=O)[C@H](CCCN)NC(=O)[C@H](CCN)NC(=O)[C@H]([C@@H](C)O)NC(=O)[C@@H](Cc2ccccc2)NC(=O)[C@H](CCN)NC1=O)[C@@H](C)O [Compound 90, Nonanoyl-Dab-Thr-D-Ser-ring(4-10)[Dab-Dab-D-Phe-Thr-Dab-Orn-Thr]] (Nonanoyl-[Dab]T[dS][Dab][Dab][dF]T[Dab][Orn]T; lactam 4-C)	320 ± 23.6 (≈ 268 µM)	0.06 (≈ 0.0503 µM)	0.03 (≈ 0.0252 µM)	64 (≈ 53.7 µM)	0.25 (≈ 0.21 µM)	0.25 (≈ 0.21 µM)	>64	0.5 (≈ 0.419 µM)	0.25 (≈ 0.21 µM)
CC[C@H](C)CCCCC(=O)N[C@@H](CCN)C(=O)N[C@H](C(=O)N[C@H](CN)C(=O)N[C@H]1CCNC(=O)[C@H]([C@@H](C)O)NC(=O)[C@H](CCN)NC(=O)[C@H](CCN)NC(=O)[C@H]([C@@H](C)O)NC(=O)[C@H](Cc2ccccc2)NC(=O)[C@H](CCN)NC1=O)[C@@H](C)O [Compound 101, (S)-6-methyloctanoyl-Dab-Thr-D-Dap-ring(4-10)[Dab-Dab-Phe-Thr-Dab-Dab-Thr]] (X1-[Dab]T[dDap][Dab][Dab]FT[Dab][Dab]T; lactam 4-C)	> 500	>64	>64	>64	>64	>64	>64	>64	>64
CCCCCCCC(=O)N[C@@H](CCN)C(=O)N[C@H](C(=O)N[C@@H](CCCN)C(=O)N[C@H]1CCNC(=O)[C@H]([C@@H](C)O)NC(=O)[C@H](CCN)NC(=O)[C@H](CCN)NC(=O)[C@H]([C@@H](C)O)NC(=O)[C@@H](Cc2ccccc2)NC(=O)[C@H](CCN)NC1=O)[C@@H](C)O [Compound 28, Octanoyl-Dab-Thr-Orn-ring(4-10)[Dab-Dab-D-Phe-Thr-Dab-Dab-Thr]] (Octanoyl-[Dab]T[Orn][Dab][Dab][dF]T[Dab][Dab]T; lactam 4-C)	> 500	0.125 (≈ 0.105 µM)	0.06 (≈ 0.0504 µM)	0.25 (≈ 0.21 µM)	≤0.03	≤0.03	≤0.03	≤0.03	≤0.03
CCCCCCCCC(=O)N[C@@H](CCN)C(=O)N[C@H](C(=O)N[C@H](CO)C(=O)N[C@H]1CCNC(=O)[C@H]([C@@H](C)O)NC(=O)[C@H](CCN)NC(=O)[C@H](CN)NC(=O)[C@H]([C@@H](C)O)NC(=O)[C@@H](Cc2ccccc2)NC(=O)[C@H](CCN)NC1=O)[C@@H](C)O [Compound 75, Nonanoyl-Dab-Thr-D-Ser-ring(4-10)[Dab-Dab-D-Phe-Thr-Dap-Dab-Thr]] (Nonanoyl-[Dab]T[dS][Dab][Dab][dF]T[Dap][Dab]T; lactam 4-C)	310 ± 19.8 (≈ 266 µM)	0.06 (≈ 0.0515 µM)	0.03 (≈ 0.0258 µM)	64 (≈ 55 µM)	0.06 (≈ 0.0515 µM)	0.25 (≈ 0.215 µM)	>64	0.5 (≈ 0.429 µM)	0.06 (≈ 0.0515 µM)
